This passage reports IC50 results from patent publication US9670212B2, “Inhibitors of PI3K-delta and methods of their use and manufacture” (Exelixis, Inc., priority 2010, dated 2017).

In this assay the target is PI3K delta (Homo sapiens (Human), UniProt O00329). Briefly: Luciferase-coupled chemiluminescence kinase assay (KinaseGlo, ATP consumption). Format: biochemical. The essentials: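 Kinase, compound and ATP (at or below KM) reacted 2 h at ambient temperature; remaining ATP detected by KinaseGlo luciferase chemiluminescence as percent ATP consumed. 10-point dose-response, curves fitted to give IC50.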
PI3K delta, sequence (O00329 whole entry): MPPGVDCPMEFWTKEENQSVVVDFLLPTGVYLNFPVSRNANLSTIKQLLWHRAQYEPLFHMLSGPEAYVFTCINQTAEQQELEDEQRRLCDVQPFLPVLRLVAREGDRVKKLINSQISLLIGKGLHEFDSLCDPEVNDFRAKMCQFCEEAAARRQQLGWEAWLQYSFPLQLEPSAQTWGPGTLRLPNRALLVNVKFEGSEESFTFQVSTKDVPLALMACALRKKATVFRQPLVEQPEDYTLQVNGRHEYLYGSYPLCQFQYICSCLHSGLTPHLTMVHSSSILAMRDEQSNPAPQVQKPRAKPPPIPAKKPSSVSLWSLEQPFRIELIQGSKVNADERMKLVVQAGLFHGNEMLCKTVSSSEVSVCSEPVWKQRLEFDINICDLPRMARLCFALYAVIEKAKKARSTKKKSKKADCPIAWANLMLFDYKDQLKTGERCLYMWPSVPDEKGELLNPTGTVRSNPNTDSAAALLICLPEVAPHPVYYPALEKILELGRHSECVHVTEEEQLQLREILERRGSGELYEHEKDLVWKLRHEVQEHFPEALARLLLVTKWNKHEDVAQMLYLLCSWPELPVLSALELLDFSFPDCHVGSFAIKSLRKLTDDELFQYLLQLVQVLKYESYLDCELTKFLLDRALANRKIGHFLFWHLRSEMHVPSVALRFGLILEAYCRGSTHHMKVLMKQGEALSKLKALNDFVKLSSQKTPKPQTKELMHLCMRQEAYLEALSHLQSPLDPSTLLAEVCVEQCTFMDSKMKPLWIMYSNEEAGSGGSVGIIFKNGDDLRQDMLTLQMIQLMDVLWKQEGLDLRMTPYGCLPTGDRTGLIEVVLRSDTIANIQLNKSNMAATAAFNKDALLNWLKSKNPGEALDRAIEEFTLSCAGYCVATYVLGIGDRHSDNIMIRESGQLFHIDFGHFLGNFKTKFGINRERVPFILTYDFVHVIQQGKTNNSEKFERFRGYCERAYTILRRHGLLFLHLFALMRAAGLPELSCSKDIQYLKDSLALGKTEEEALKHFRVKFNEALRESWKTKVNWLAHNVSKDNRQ
PI3K delta, sequence (P27986 whole entry partner): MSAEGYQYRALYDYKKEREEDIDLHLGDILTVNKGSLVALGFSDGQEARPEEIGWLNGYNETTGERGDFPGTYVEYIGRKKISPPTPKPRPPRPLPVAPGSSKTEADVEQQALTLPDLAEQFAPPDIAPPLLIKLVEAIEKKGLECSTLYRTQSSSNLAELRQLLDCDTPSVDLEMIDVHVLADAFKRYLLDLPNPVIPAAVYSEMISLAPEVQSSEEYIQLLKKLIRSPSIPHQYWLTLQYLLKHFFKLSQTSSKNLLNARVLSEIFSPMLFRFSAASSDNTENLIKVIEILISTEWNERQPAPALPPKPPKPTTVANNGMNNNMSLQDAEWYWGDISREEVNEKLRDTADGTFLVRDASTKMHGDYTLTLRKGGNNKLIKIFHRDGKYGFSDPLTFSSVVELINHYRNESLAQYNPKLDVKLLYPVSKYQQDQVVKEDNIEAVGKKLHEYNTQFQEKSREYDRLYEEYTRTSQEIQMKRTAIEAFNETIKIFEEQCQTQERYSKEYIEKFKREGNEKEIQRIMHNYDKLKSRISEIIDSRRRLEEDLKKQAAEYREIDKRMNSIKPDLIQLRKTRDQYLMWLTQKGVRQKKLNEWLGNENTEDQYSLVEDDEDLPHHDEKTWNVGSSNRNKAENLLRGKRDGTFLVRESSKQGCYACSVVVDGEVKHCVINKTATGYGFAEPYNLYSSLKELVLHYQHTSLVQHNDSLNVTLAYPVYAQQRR
In general terms: In Kinase-Glo more light means more ATP remaining.

Bounds are passed on as bounds.

Turning to `CCN1CCN(c2nc3c(C)cccc3cc2CNc2ncnc3[nH]cnc23)CC1` [Compound 144, N-{[2-(4-ethylpiperazin-1-yl)-8-methylquinolin-3-yl]methyl}-9H-purin-6-amine], the IC50 is below 50 nM.

`COc1ccc(OC(C)c2cc3cccc(C)c3nc2-c2ccccc2Cl)cc1` (stereo not drawn) [Compound 17, 2-(2-chlorophenyl)-8-methyl-3-(1-{[4-(methyloxy)phenyl]oxy}ethyl)quinoline] had an IC50 of 500 to 1500 nM.

Molecule `Cc1cccc2cc(CNC(=O)c3nccnc3N)c(N(C)CCN(C)C)nc12` [Compound 128, 3-amino-N-[(2-{[2-(dimethylamino)ethyl](methyl)amino}-8-methylquinolin-3-yl)methyl]pyrazine-2-carboxamide] had an IC50 below 50 nM.

For the molecule `Cc1ccccc1-c1cc2ccccc2nc1C(C)NC(=O)c1nccnc1N` (stereo not drawn) [Compound 75, 3-amino-N-{1-[3-(2-methylphenyl)quinolin-2-yl]ethyl}pyrazine-2-carboxamide], the IC50 lay in the range of 250 to 500 nM.

For `Cc1cccc2cc(CNC(=O)c3nccnc3N)c(N(C)CCN(C)C(=O)c3ccncc3)nc12` [Compound 79, 3-amino-N-{[8-methyl-2-(methyl{2-[methyl(pyridin-4-ylcarbonyl)amino]ethyl}amino)quinolin-3-yl]methyl}pyrazine-2-carboxamide], the IC50 is 50 to 250 nM.

As to `Cc1cccc2cc(CNc3ncnc4[nH]cnc34)c(N(C)CCN(C)C(=O)Cn3ccnn3)nc12` [Compound 35, N-methyl-N-[2-(methyl{8-methyl-3-[(9H-purin-6-ylamino)methyl]quinolin-2-yl}amino)ethyl]-2-(1H-1,2,3-triazol-1-yl)acetamide], the IC50 was below 50 nM.

`Cc1cccc2cc(CNC(=O)c3nccnc3N)c(N3CCNCC3)nc12` [Compound 131, 3-amino-N-[(8-methyl-2-piperazin-1-ylquinolin-3-yl)methyl]pyrazine-2-carboxamide]: the IC50 lay in the range of 500 to 1500 nM.

In turn, `CNCCN(C)c1nc2c(C)cccc2cc1Cn1cnc2c(N)ncnc21` [Compound 149, N-{3-[(6-amino-9H-purin-9-yl)methyl]-8-methylquinolin-2-yl}-N,N′-dimethylethane-1,2-diamine] had an IC50 below 50 nM.

Turning to `Cc1cccc2cc(CSc3ncnc4[nH]cnc34)c(N(C)CC3CCN(C)CC3)nc12` [Compound 1, N,8-dimethyl-N-[(1-methylpiperidin-4-yl)methyl]-3-[(9H-purin-6-ylthio)methyl]quinolin-2-amine], the IC50 is 50 to 250 nM.

Take `Cc1cccc2cc(Cn3cnc4c(N)ncnc43)c(N(C)CCN(C)C(=O)Cn3ccnn3)nc12` [Compound 34, N-{2-[{3-[(6-amino-9H-purin-9-yl)methyl]-8-methylquinolin-2-yl}(methyl)amino]ethyl}-N-methyl-2-(1H-1,2,3-triazol-1-yl)acetamide]: the IC50 was below 50 nM.

In turn, `Cc1cccc2cc(CNC(=O)c3nccnc3N)c(N(C)CCN(C)C(=O)Cn3cccn3)nc12` [Compound 49, 3-amino-N-{[8-methyl-2-(methyl{2-[methyl(1H-pyrazol-1-ylacetyl)amino]ethyl}amino)quinolin-3-yl]methyl}pyrazine-2-carboxamide] showed an IC50 below 50 nM.

`Cc1cccc2cc(Cn3cnc4c(N)ncnc43)c(-c3ccccc3Cl)nc12` [Compound 187, 9-{[2-(2-chlorophenyl)-8-methylquinolin-3-yl]methyl}-9H-purin-6-amine] yielded an IC50 of 50 to 250 nM.

The molecule `Cc1ccccc1-c1cc2ccccc2nc1CNc1ncnc2[nH]nc(Br)c12` [Compound 141, 3-bromo-N-{[3-(2-methylphenyl)quinolin-2-yl]methyl}-1H-pyrazolo[3,4-d]primidin-4-amine] registered an IC50 of 500 to 1500 nM.

As for `Cc1cccc2cc(CNc3ncnc4[nH]cnc34)c(N(C)CC3CCCN(C)C3)nc12` (stereo not drawn) [Compound 32, N,8-dimethyl-N-[(1-methylpiperidin-3-yl)methyl]-3-[(9H-purin-6-ylamino)methyl]quinolin-2-amine], the IC50 is below 50 nM.

On to `Cc1ccccc1-c1cc2ccccc2nc1Cn1cnc2ncnc(N)c21` [Compound 178, 7-{[3-(2-methylphenyl)quinolin-2-yl]methyl}-7H-purin-6-amine], for which the IC50 lay in the range of 50 to 250 nM.

Regarding `Cc1cccc2cc(CNC(=O)c3nccnc3N)c(N3CCC(NC(=O)Cn4ccnn4)C3)nc12` (stereo not drawn) [Compound 45, 3-amino-N-[(8-methyl-2-{3-[(1H-1,2,3-triazol-1-ylacetyl)amino]pyrrolidin-1-yl}quinolin-3-yl)methyl]pyrazine-2-carboxamide], the IC50 fell in the range of 500 to 1500 nM.

`Cc1cccc2cc(Cn3cnc4c(N)ncnc43)c(N3CCNCC3)nc12` [Compound 172, 9-[(8-methyl-2-piperazin-1-ylquinolin-3-yl)methyl]-9H-purin-6-amine] showed an IC50 of 50 to 250 nM.

The molecule `Cc1cccc2cc(CNC(=O)c3nccnc3N)c(N(C)CCN(C)S(C)(=O)=O)nc12` [Compound 101, 3-amino-N-{[8-methyl-2-(methyl{2-[methyl(methylsulfonyl)amino]ethyl}amino)quinolin-3-yl]methyl}pyrazine-2-carboxamide] gave an IC50 of 50 to 250 nM.

In the case of `CNCCN(C)c1nc2c(C)cccc2cc1-c1nnc(-c2nccnc2N)o1` [Compound 29, N-{3-[5-(3-aminopyrazin-2-yl)-1,3,4-oxadiazol-2-yl]-8-methylquinolin-2-yl}-N,N′-dimethylethane-1,2-diamine], the IC50 fell in the range of 500 to 1500 nM.

As to `Cc1ccccc1-c1cc2ccccc2nc1CNc1cncnc1N` [Compound 132, N-5-{[3-(2-methylphenyl)quinolin-2-yl]methyl}pyrimidin-4,5-diamine], the IC50 lay within 500 to 1500 nM.

`CNCCN(C)c1nc2c(C)cccc2cc1CNc1ncnc2[nH]cnc12` [Compound 36, N,N′-dimethyl-N-{8-methyl-3-[(9H-purin-6-ylamino)methyl]quinolin-2-yl}ethane-1,2-diamine] came in with an IC50 below 50 nM.

Take `Cc1cccc2cc(CNC(=O)c3nccnc3N)c(N(C)CCN(C)C(=O)Cn3ccnc3)nc12` [Compound 85, 3-amino-N-({2-[{2-[(1H-imidazol-1-ylacetyl)(methyl)amino]ethyl}(methyl)amino]-8-methylquinolin-3-yl}methyl)pyrazine-2-carboxamide]: the IC50 was below 50 nM.

On to `Cc1cccc2cc(C(C)Nc3ncnc4[nH]cnc34)c(-c3ccccc3Cl)nc12` (stereo not drawn) [Compound 152, N-{1-[2-(2-chlorophenyl)-8-methylquinolin-3-yl]ethyl}-9H-purin-6-amine], for which the IC50 was below 50 nM.

In turn, `Cc1ccccc1-c1cc2c(C)cccc2nc1CNC(=O)c1nccnc1N` [Compound 118, 3-amino-N-{[5-methyl-3-(2-methylphenyl)quinolin-2-yl]methyl}pyrazine-2-carboxamide] yielded an IC50 of 250 to 500 nM.

`Cc1cccc2cc(CNc3ncnc4[nH]cnc34)c(N3CCCCC3)nc12` [Compound 27, N-[(8-methyl-2-piperidin-1-ylquinolin-3-yl)methyl]-9H-purin-6-amine] registered an IC50 of 50 to 250 nM.

As for `COCCOc1cccc(-c2nc3c(C)cccc3cc2Cn2cnc3c(N)ncnc32)c1` [Compound 184, 9-{[8-methyl-2-(3-{[2-(methyloxy)ethyl]oxy}phenyl)quinolin-3-yl]methyl}-9H-purin-6-amine], the IC50 fell in the range of 250 to 500 nM.

In the case of `Cc1cccc2cc(CNC(=O)c3nccnc3N)c(N(C)CCN(C)C(=O)c3cnccn3)nc12` [Compound 78, 3-amino-N-{[8-methyl-2-(methyl{2-[methyl(pyrazin-2-ylcarbonyl)amino]ethyl}amino)quinolin-3-yl]methyl}pyrazine-2-carboxamide], the IC50 is 500 to 1500 nM.

For `Cc1cccc2cc(CNC(=O)c3nccnc3N)c(-n3cnc4ccccc43)nc12` [Compound 112, 3-amino-N-{[2-(1H-benzimidazol-1-yl)-8-methylquinolin-3-yl]methyl}pyrazine-2-carboxamide], the IC50 is 500 to 1500 nM.

`Cc1cccc2cc(CNC(=O)c3nccnc3N)c(N(C)CCN(C)C(=O)c3ccccn3)nc12` [Compound 81, 3-amino-N-{[8-methyl-2-(methyl{2-[methyl(pyridin-2-ylcarbonyl)amino]ethyl}amino)quinolin-3-yl]methyl}pyrazine-2-carboxamide] displayed an IC50 of 250 to 500 nM.

In turn, `Cc1cccc2cc(CNC(=O)c3nccnc3N)c(N3CCCCC3)nc12` [Compound 147, 3-amino-N-[(8-methyl-2-piperidin-1-ylquinolin-3-yl)methyl]pyrazine-2-carboxamide] displayed an IC50 of 500 to 1500 nM.

Molecule `Cc1cccc2cc(CNC(=O)c3nccnc3N)c(N(C)CCN(C)CC(=O)N(C)C)nc12` [Compound 89, 3-amino-N-({2-[(2-{[2-(dimethylamino)-2-oxoethyl](methyl)amino}ethyl)(methyl)amino]-8-methylquinolin-3-yl}methyl)pyrazine-2-carboxamide] returned an IC50 below 50 nM.

Consider `Cc1cccc2cc(CNC(=O)c3nccnc3N)c(N(C)CCN(C)C(=O)CN3CCCC3)nc12` [Compound 109, 3-amino-N-{[8-methyl-2-(methyl{2-[methyl(pyrrolidin-1-ylacetyl)amino]ethyl}amino)quinolin-3-yl]methyl}pyrazine-2-carboxamide], for which the IC50 was in the range of 50 to 250 nM.

Regarding `Cc1cccc2cc(CNC(=O)c3nccnc3N)c(N(Cc3cccnc3)Cc3cccnc3)nc12` [Compound 46, 3-amino-N-({2-[bis(pyridin-3-ylmethyl)amino]-8-methylquinolin-3-yl}methyl)pyrazine-2-carboxamide], the IC50 fell in the range of 250 to 500 nM.

For `Cc1ccccc1-c1nc2ccccc2nc1Cn1cnc2c(N)ncnc21` [Compound 190, 9-{[3-(2-methylphenyl)quinoxalin-2-yl]methyl}-9H-purin-6-amine], the IC50 lay in the range of 500 to 1500 nM.

Molecule `Cc1cccc2nc(CNC(=O)c3nccnc3N)c(-c3ccccc3CN(C)C)cc12` [Compound 52, 3-amino-N-[(3-{2-[(dimethylamino)methyl]phenyl}-5-methylquinolin-2-yl)methyl]pyrazine-2-carboxamide] gave an IC50 below 50 nM.

For `Cc1ccccc1-c1c(Cn2cnc3c(N)ncnc32)nc2ccccc2c1C` [Compound 168, 9-{[4-methyl-3-(2-methylphenyl)quinolin-2-yl]methyl}-9H-purin-6-amine], the IC50 lay within 500 to 1500 nM.

Broadly, the IC50 is the midpoint of a concentration-inhibition curve. Low readings indicate greater potency, high ones weaker potency.
